# Results published in ChEMBL document CHEMBL1201862, “PubChem BioAssay data set” (2004).
#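 How tested: cells in 96-well plates exposed to compound for 48 hours at five concentrations. GI50: concentration for 50% inhibition of growth.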 The source made the active and inactive calls. Cut-off read from the data, not from the text of the source: active = GI50 up to about 1.1 µM and inactive = higher.
# What was measured:
# Test in all cases: growth of human tumour cells (NCI), 48 h
# RPMI-8226 = system: RPMI-8226
# SF-268 = system: SF-268
# OVCAR-8 = system: OVCAR-8
# HCT-15 = system: HCT-15
# SW-620 = system: SW-620
# HL-60 = system: HL-60
# KM-20L2 = system: KM-20L2
# MOLT-4 = system: MOLT-4
# RXF 393 = system: RXF 393
# TK-10 = system: TK-10
# SNB-75 = system: SNB-75
# M14 = system: M14
# 786-0 = system: 786-0
# NCI-H226 = system: NCI-H226
# A549 = system: A549
# HT-29 = system: HT-29
# U-251 = system: U-251
# EKVX = system: EKVX
# RXF 631 = system: RXF 631
# HOP-92 = system: HOP-92
# SN12C = system: SN12C
# OVCAR-4 = system: OVCAR-4
# UACC-257 = system: UACC-257
# LXFL 529 = system: LXFL 529
# Malme-3M = system: Malme-3M
# SK-MEL-2 = system: SK-MEL-2
# NCI-H460 = system: NCI-H460
# CAKI-1 = system: CAKI-1
# SNB-78 = system: SNB-78
# COLO 205 = system: COLO 205
# DMS-114 = system: DMS-114
# HOP-18 = system: HOP-18
# OVCAR-3 = system: OVCAR-3
# UO-31 = system: UO-31
# K562 = system: K562
# M19-MEL = system: M19-MEL
# SNB-19 = system: SNB-19
# CCRF-CEM = system: CCRF-CEM
# XF498 = system: XF498
# SK-MEL-28 = system: SK-MEL-28
# KM12 = system: KM12
# DLD-1 = system: DLD-1
# ACHN = system: ACHN
# HCC 2998 = system: HCC 2998
# SK-MEL-5 = system: SK-MEL-5
# SR = system: SR
# DMS-273 = system: DMS-273
# OVCAR-5 = system: OVCAR-5
# NCI-H522 = system: NCI-H522
# SF-295 = system: SF-295
# HCT-116 = system: HCT-116
# LOX IMVI = system: LOX IMVI
# NCI-H23 = system: NCI-H23
# IGROV-1 = system: IGROV-1
# A498 = system: A498
# SF-539 = system: SF-539
# UACC-62 = system: UACC-62
# HOP-62 = system: HOP-62
structure (smiles),measurement,setting,value
Cc1c(C(=O)C/C(=N/NC(=O)C[N+](C)(C)C)C(=O)Nc2ccc(Cl)cc2)[n+]([O-])c2ccccc2[n+]1[O-],GI50,RPMI-8226,> 100 µM (inactive)
same,GI50,SF-268,> 100 µM (inactive)
same,GI50,OVCAR-8,> 100 µM (inactive)
same,GI50,HCT-15,> 100 µM
same,GI50,SW-620,> 100 µM (inactive)
same,GI50,HL-60,> 100 µM (inactive)
same,GI50,KM-20L2,> 100 µM (inactive)
same,GI50,MOLT-4,> 100 µM (inactive)
same,GI50,RXF 393,> 100 µM (inactive)
same,GI50,TK-10,> 100 µM (inactive)
same,GI50,SNB-75,> 100 µM (inactive)
same,GI50,M14,> 100 µM (inactive)
same,GI50,786-0,> 100 µM (inactive)
same,GI50,NCI-H226,> 100 µM (inactive)
same,GI50,A549,> 100 µM (inactive)
same,GI50,HT-29,> 100 µM (inactive)
same,GI50,U-251,> 100 µM (inactive)
same,GI50,EKVX,> 100 µM (inactive)
same,GI50,RXF 631,> 100 µM (inactive)
same,GI50,HOP-92,> 100 µM (inactive)
same,GI50,SN12C,> 100 µM (inactive)
same,GI50,OVCAR-4,> 100 µM (inactive)
same,GI50,UACC-257,> 100 µM (inactive)
same,GI50,LXFL 529,> 100 µM (inactive)
same,GI50,Malme-3M,> 100 µM (inactive)
same,GI50,SK-MEL-2,> 100 µM (inactive)
same,GI50,NCI-H460,> 100 µM (inactive)
same,GI50,CAKI-1,> 100 µM (inactive)
same,GI50,SNB-78,> 100 µM (inactive)
same,GI50,COLO 205,> 100 µM (inactive)
same,GI50,DMS-114,> 100 µM (inactive)
same,GI50,HOP-18,> 100 µM (inactive)
same,GI50,OVCAR-3,> 100 µM (inactive)
same,GI50,UO-31,> 100 µM (inactive)
same,GI50,K562,> 100 µM (inactive)
same,GI50,M19-MEL,> 100 µM (inactive)
same,GI50,SNB-19,> 100 µM (inactive)
same,GI50,CCRF-CEM,> 100 µM (inactive)
same,GI50,XF498,> 100 µM (inactive)
same,GI50,SK-MEL-28,> 100 µM (inactive)
same,GI50,KM12,> 100 µM (inactive)
same,GI50,DLD-1,> 100 µM (inactive)
same,GI50,ACHN,> 100 µM (inactive)
same,GI50,HCC 2998,> 100 µM (inactive)
same,GI50,SK-MEL-5,> 100 µM (inactive)
same,GI50,SR,> 100 µM (inactive)
same,GI50,DMS-273,> 100 µM (inactive)
same,GI50,OVCAR-5,> 100 µM (inactive)
same,GI50,NCI-H522,> 100 µM (inactive)
same,GI50,SF-295,> 100 µM (inactive)
same,GI50,HCT-116,> 100 µM (inactive)
same,GI50,LOX IMVI,> 100 µM (inactive)
same,GI50,NCI-H23,> 100 µM (inactive)
same,GI50,IGROV-1,> 100 µM (inactive)
same,GI50,A498,> 100 µM (inactive)
same,GI50,SF-539,> 100 µM (inactive)
same,GI50,UACC-62,> 100 µM (inactive)
same,GI50,HOP-62,> 100 µM (inactive)
